Assay results taken from PMC8286840, “Identifying SARS-CoV-2 antiviral compounds by screening for small molecule inhibitors of Nsp3 papain-like protease” (Biochemical Journal, 2021).
Where a name gives a salt, the structure may show the parent alone. Read-outs that look alike come from different tables or passages of the source. *1 amine or outer side, *2 acyl side, *3 side chain or, on linkers, in order; H or OH if unused. Where a SMILES comes first, the peptide text is derived from it. Bridges are numbered along the chain shown (N, C = ends). X1 = O=C(CCC[*:2])[*:1]

Tests used:
[1] = biological target: T1, SARS-CoV-2 PLpro (nsp3 1564–1878) (Severe acute respiratory syndrome coronavirus 2, UniProt P0DTD1); assay: biochemical; set-up: FRET-quenched peptide (Pro3) cleavage by PLpro, 10 min pre-incubation, slope over 20 min, normalised to no-compound control; conditions: low concentration screen, read-out: % of control remaining
[2] = biological target: T1, SARS-CoV-2 PLpro (nsp3 1564–1878); assay: biochemical; set-up: FRET-quenched peptide (Pro3) cleavage by PLpro, 10 min pre-incubation, slope over 20 min, normalised to no-compound control; conditions: high concentration screen, read-out: % of control remaining

Compound: CCCN(CCc1ccccc1)C1CCc2c(O)cccc2C1 (racemic)
- remaining activity at 1.25 µM ([1]; Well no.=1357): 102%
- remaining activity at 3.75 µM ([2]; Well no.=1357): 103%

Compound: CS(=O)(=O)c1ccc(C2=C(c3ccccc3)C(=O)OC2)cc1 [Rofecoxib]
- remaining activity at 1.25 µM ([1]; Well no.=1724): 101%
- remaining activity at 3.75 µM ([2]; Well no.=1724): 100%

Compound: CC(CN1c2ccccc2Sc2ccccc21)N(C)C (stereo not shown) [Promethazine hydrochloride]
- remaining activity at 1.25 µM ([1]; Well no.=860): 100%
- remaining activity at 3.75 µM ([2]; Well no.=860): 101%

Compound: OCC(CO)N[C@H]1C[C@](O)(CO)[C@@H](O)[C@H](O)[C@H]1O [Voglibose]
- remaining activity at 1.25 µM ([1]; Well no.=8298): 90.6%
- remaining activity at 3.75 µM ([2]; Well no.=8298): 93.5%

Compound: C[C@H](N[C@@H](CCc1ccccc1)C(=O)O)C(=O)N1CCC[C@H]1C(=O)O [Enalaprilat Dihydrate]
- remaining activity at 1.25 µM ([1]; Well no.=8094): 96.7%
- remaining activity at 3.75 µM ([2]; Well no.=8094): 98.4%

Compound: COc1cc2nccc(Oc3ccc(NC(=S)NC(=O)c4ccccc4C)cc3)c2cc1OC [PDGF RTK Inhibitor]
- remaining activity at 1.25 µM ([1]; Well no.=2509): 104%
- remaining activity at 3.75 µM ([2]; Well no.=2509): 101%

Compound: O=C(O)c1ccccc1C(=O)Nc1ccc(S(=O)(=O)Nc2nccs2)cc1 [Phthalylsulfathiazole]
- remaining activity at 1.25 µM ([1]; Well no.=7314): 97.8%
- remaining activity at 3.75 µM ([2]; Well no.=7314): 95.3%

Compound: CNCC[C@@H](Oc1ccc(C(F)(F)F)cc1)c1ccccc1 [R-(-)-Fluoxetine hydrochloride]
- remaining activity at 1.25 µM ([1]; Well no.=419): 92.7%
- remaining activity at 3.75 µM ([2]; Well no.=419): 92.4%

Compound: Cc1ccc2c(=O)c3ccccc3n(CCCN)c2c1C [ER 27319 maleate - 10-(3-Aminopropyl)-3,4-dimethyl-9(10H)-acridinone maleate]
- remaining activity at 1.25 µM ([1]; Well no.=2536): 98.5%
- remaining activity at 3.75 µM ([2]; Well no.=2536): 99.3%

Compound: CCCCCCCC/C=C\CCCCCCCC(=O)O [Oleic Acid]
- remaining activity at 1.25 µM ([1]; Well no.=848): 102%
- remaining activity at 3.75 µM ([2]; Well no.=848): 101%
- remaining activity at 3.75 µM ([2]; Well no.=7347): 104%

Compound: O=C(O)c1cc(=O)c2c(Cl)cc(Cl)cc2[nH]1 [5,7-Dichlorokynurenic acid]
- remaining activity at 1.25 µM ([1]; Well no.=546): 95.2%
- remaining activity at 3.75 µM ([2]; Well no.=546): 97.5%

Compound: CN1CCN(C(=O)/C=C/c2ccc([N+](=O)[O-])o2)CC1 [NSC59984]
- remaining activity at 1.25 µM ([1]; Well no.=6644): 105%
- remaining activity at 3.75 µM ([2]; Well no.=6644): 106%

Compound: O=C(Nc1ccc(OC(F)(F)F)cc1)c1sccc1NCc1ccnc2ccccc12 [OSI-930]
- remaining activity at 1.25 µM ([1]; Well no.=4755): 105%
- remaining activity at 3.75 µM ([2]; Well no.=4755): 103%

Compound: CC(C)C[C@H](NC(=O)[C@H](CCc1ccccc1)NC(=O)CN1CCOCC1)C(=O)N[C@@H](Cc1ccccc1)C(=O)N[C@@H](CC(C)C)C(=O)[C@@]1(C)CO1 [Carfilzomib (PR-171)]
- remaining activity at 1.25 µM ([1]; Well no.=5173): 103%
- remaining activity at 3.75 µM ([2]; Well no.=5173): 97.1%

Compound: C[N+](C)(C)CCCCCCCCCC[N+](C)(C)C [Decamethonium]
- remaining activity at 1.25 µM ([1]; Well no.=1554): 97.2%
- remaining activity at 3.75 µM ([2]; Well no.=1554): 100%

Compound: CCCN[C@H]1CCc2nc(N)sc2C1 [Pramipexole (dihydrochloride)]
- remaining activity at 1.25 µM ([1]; Well no.=6229): 108%
- remaining activity at 3.75 µM ([2]; Well no.=6229): 106%

Compound: C#CCN(C)CCCOc1ccc(Cl)cc1Cl [Clorgyline hydrochloride]
- remaining activity at 1.25 µM ([1]; Well no.=878): 101%
- remaining activity at 3.75 µM ([2]; Well no.=878): 102%

Compound: Cc1ccc2nc(CN(CCN(Cc3nc4ccc(C)cc4[nH]3)Cc3nc4ccc(C)cc4[nH]3)Cc3nc4ccc(C)cc4[nH]3)[nH]c2c1 [NSC348884]
- remaining activity at 1.25 µM ([1]; Well no.=6442): 105%
- remaining activity at 3.75 µM ([2]; Well no.=6442): 98.1%

Compound: COc1ccc2c3c4n(c2c1)[C@H](C=C(C)C)OOC(C)(C)C[C@@H]4N1C(=O)[C@@H]2CCCN2C(=O)[C@]1(O)[C@H]3O [Verruculogen]
- remaining activity at 1.25 µM ([1]; Well no.=3556): 98.3%
- remaining activity at 3.75 µM ([2]; Well no.=3556): 102%

Compound: Cc1ccccc1C(=O)Nc1ccc(C(=O)N2CCCC(N(C)C)c3ccccc32)cc1 (stereo not shown) [Mozavaptan]
- remaining activity at 1.25 µM ([1]; Well no.=4936): 101%
- remaining activity at 1.25 µM ([1]; Well no.=6515): 93.2%
- remaining activity at 3.75 µM ([2]; Well no.=4936): 101%
- remaining activity at 3.75 µM ([2]; Well no.=6515): 96.3%

Compound: O=S(=O)(O)c1cc(O)ccc1O [Ethamsylate]
- remaining activity at 1.25 µM ([1]; Well no.=6763): 103%
- remaining activity at 3.75 µM ([2]; Well no.=6763): 89.6%

Compound: CC(C)(Cc1ccc2ccccc2c1)NC[C@@H](O)COc1cccc(Cl)c1C#N [NPS-2143 (hydrochloride)]
- remaining activity at 1.25 µM ([1]; Well no.=7051): 107%
- remaining activity at 3.75 µM ([2]; Well no.=7051): 105%

Compound: O[C@@H]1[C@@H](O)[C@H](OC/C=C/c2ccccc2)O[C@H](CO[C@@H]2OC[C@H](O)[C@H](O)[C@H]2O)[C@H]1O [Rosavin]
- remaining activity at 1.25 µM ([1]; Well no.=5422): 101%
- remaining activity at 3.75 µM ([2]; Well no.=5422): 104%

Compound: CC[C@H](C)[C@@H]1NC(=O)[C@H](Cc2ccc(OC)cc2)NC(=O)CCCSC[C@@H](C(=O)N2CCC[C@H]2C(=O)N[C@@H](CC(C)C)C(=O)NCC(N)=O)NC(=O)[C@H](CC(N)=O)NC(=O)[C@H](CCC(N)=O)NC1=O [Carbetocin] (Y(Me)IQNCPLG-NH2; linker N-5 via X1)
- remaining activity at 1.25 µM ([1]; Well no.=8293): 102%
- remaining activity at 3.75 µM ([2]; Well no.=8293): 101%

Compound: CC1(C)C=C(CN2C/C(=C\c3ccc(F)cc3)C(=O)/C(=C/c3ccc(F)cc3)C2)C(C)(C)N1O [HO-3867]
- remaining activity at 1.25 µM ([1]; Well no.=8518): 101%
- remaining activity at 3.75 µM ([2]; Well no.=8518): 102%

Compound: CCCOC(=O)c1cc(O)c(O)c(O)c1 [N-Propyl gallate]
- remaining activity at 1.25 µM ([1]; Well no.=3987): 104%
- remaining activity at 3.75 µM ([2]; Well no.=3987): 102%

Compound: O=C(O)COc1cccc(CN(Cc2ccc(-n3cccn3)cc2)S(=O)(=O)c2cccnc2)c1 [Taprenepag]
- remaining activity at 1.25 µM ([1]; Well no.=6182): 96%
- remaining activity at 3.75 µM ([2]; Well no.=6182): 97.6%

Compound: Cn1cnc([N+](=O)[O-])c1Sc1ncnc2[nH]cnc12 [Azathioprine]
- remaining activity at 1.25 µM ([1]; Well no.=111): 99.7%
- remaining activity at 1.25 µM ([1]; Well no.=1834): 102%
- remaining activity at 3.75 µM ([2]; Well no.=111): 100%
- remaining activity at 3.75 µM ([2]; Well no.=1834): 97.6%

Compound: N=C(N)SCCc1ccc(CCSC(=N)N)cc1 [1,4-PBIT dihydrobromide]
- remaining activity at 1.25 µM ([1]; Well no.=1255): 104%
- remaining activity at 3.75 µM ([2]; Well no.=1255): 105%

Compound: NOCC(=O)O [O-(Carboxymethyl)hydroxylamine hemihydrochloride]
- remaining activity at 1.25 µM ([1]; Well no.=15): 103%
- remaining activity at 3.75 µM ([2]; Well no.=15): 102%

Compound: CC(C)[C@H](N=C(NS(=O)(=O)c1ccc(Cl)cc1)N1C[C@H](c2ccccc2)C(c2ccc(Cl)cc2)=N1)C(N)=O [JD-5037]
- remaining activity at 1.25 µM ([1]; Well no.=8487): 97.2%
- remaining activity at 3.75 µM ([2]; Well no.=8487): 82.1%

Compound: CN(C)CCCN1c2ccccc2Sc2ccc(Cl)cc21 [Chlorpromazine.HCl]
- remaining activity at 1.25 µM ([1]; Well no.=1596): 104%
- remaining activity at 3.75 µM ([2]; Well no.=1596): 103%

Compound: CCn1cc(C(=O)O)c(=O)c2ccc(C)nc21 [Nalidixic acid]
- remaining activity at 1.25 µM ([1]; Well no.=3256): 99.8%
- remaining activity at 3.75 µM ([2]; Well no.=3256): 99.3%

Compound: CCCCC[C@H](O)/C=C/[C@@H]1[C@@H](C/C=C\CCCC(=O)O)[C@@H](O)C[C@H]1O [Dinoprost]
- remaining activity at 1.25 µM ([1]; Well no.=1667): 99.9%
- remaining activity at 3.75 µM ([2]; Well no.=1667): 101%
